Measured values reported in ChEMBL document CHEMBL1137247, “Derivatives of 7-amino-1,2,3,4-tetrahydroisoquinoline and isophthalic acids as novel fibrinogen receptor antagonists” (Bioorg Med Chem Lett, 2006).

Columns and labels:
[1] = test system: Plasma; assay: Inhibition of ADP-induced platelet aggregation in human platelet-rich plasma by Born's method
[2] = target: Integrin alpha-IIb/beta-3 (Homo sapiens); assay: Displacement of FITC-Fg from integrin alphaIIbbeta3 receptor expressed in human activated platelets

| Compound | IC50 [1] [nM] | IC50 [2] [nM] |
| --- | --- | --- |
| O=C(O)CC(NC(=O)c1cc(C(=O)Nc2ccc3c(c2)CNCC3)cc([N+](=O)[O-])c1)c1ccccc1 (stereo unspecified) | 710 | 8 |
| O=C(O)CCNC(=O)c1cccc(C(=O)Nc2ccc3c(c2)CNCC3)c1 | 78 | 9 |
| COc1ccc(C(CC(=O)O)NC(=O)c2cc(C(=O)Nc3ccc4c(c3)CNCC4)cc([N+](=O)[O-])c2)cc1 (stereo unspecified) | 450 | 5 |
| O=C(O)CCNC(=O)c1cc(C(=O)Nc2ccc3c(c2)CNCC3)cc([N+](=O)[O-])c1 | 2300 | 32 |
| COc1ccc(C(CC(=O)O)NC(=O)c2cc(C(=O)Nc3ccc4c(c3)CNCC4)cc([N+](=O)[O-])c2)cc1OC (stereo unspecified) | 340 | 3.7 |

The next molecules have a lower IC50 [1] than those just listed; values first:

| IC50 [1] [nM] | IC50 [2] [nM] | Compound |
| --- | --- | --- |
| 25 | 1 | O=C(O)CC(NC(=O)c1cccc(C(=O)Nc2ccc3c(c2)CNCC3)c1)c1ccccc1 (stereo unspecified) |
| 17 | 0.8 | COc1ccc(C(CC(=O)O)NC(=O)c2cccc(C(=O)Nc3ccc4c(c3)CNCC4)c2)cc1 (stereo unspecified) |
| 11.6 | 0.7 | COc1ccc(C(CC(=O)O)NC(=O)c2cccc(C(=O)Nc3ccc4c(c3)CNCC4)c2)cc1OC (stereo unspecified) |
